According to patent publication US6737383B1, “Herbicidal oxadiazolidines” (priority 1999, dated 2004):

Columns and labels:
bedstraw = assay: Test B pre/postemergence bedstraw; type: in vivo, Galium aparine; settings: Postemergence, Rate 500 g/ha; scale of 0 to 10 where 0 is no effect and 10 is complete control
In short: (§1)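 Test chemicals in a non-phytotoxic solvent mixture with surfactant were sprayed preemergence onto planted seeds and postemergence onto plants 2 to 18 cm tall (1- to 4-leaf stage). After twelve to sixteen days in a greenhouse, injury was visually rated against untreated controls from 0 (no effect) to 10 (complete control).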

blackgrass = assay: Test B pre/postemergence blackgrass; type: in vivo, Alopecurus myosuroides
In short: as §1

surinam grass = assay: Test B pre/postemergence surinam grass; type: in vivo, Brachiaria decumbens
In short: as §1

cocklebur = assay: Test B pre/postemergence cocklebur; type: in vivo, Xanthium strumarium
In short: as §1

corn = assay: Test B pre/postemergence corn; type: in vivo, Zea mays
In short: as §1

crabgrass = assay: Test B pre/postemergence crabgrass; type: in vivo, Digitaria sanguinalis
In short: as §1

giant foxtail = assay: Test B pre/postemergence giant foxtail; type: in vivo, Setaria faberii
In short: as §1

morningglory = assay: Test B pre/postemergence morningglory; type: in vivo, Ipomoea hederacea
In short: as §1

pigweed = assay: Test B pre/postemergence pigweed; type: in vivo, Amaranthus retroflexus
In short: as §1

rape = assay: Test B pre/postemergence rape; type: in vivo, Brassica napus
In short: as §1

soybean = assay: Test B pre/postemergence soybean; type: in vivo, Glycine max
In short: as §1

sugar beet = assay: Test B pre/postemergence sugar beet; type: in vivo, Beta vulgaris
In short: as §1

velvetleaf = assay: Test B pre/postemergence velvetleaf; type: in vivo, Abutilon theophrasti
In short: as §1

wheat = assay: Test B pre/postemergence wheat; type: in vivo, Triticum aestivum
In short: as §1

wild oat = assay: Test B pre/postemergence wild oat; type: in vivo, Avena fatua
In short: as §1

purple nutsedge = assay: Test B pre/postemergence purple nutsedge; type: in vivo, Cyperus rotundus
In short: as §1

rice = assay: Test B flood test rice; type: in vivo, Oryza sativa
In short: (§2)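 Read-out is a visual response score from 0 (no effect) to 10 (complete control), assigned by comparison with untreated controls. Treatment was applied at the 2-leaf stage, and plants stayed in the greenhouse for twelve to sixteen days before scoring.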

smallflower flatsedge = assay: Test B flood test smallflower flatsedge; type: in vivo, Cyperus difformis
In short: as §2

duck salad = assay: Test B flood test duck salad; type: in vivo, Heteranthera limosa
In short: as §2

bamyardgrass = assay: Test B flood test barnyardgrass; type: in vivo, Echinochloa crus-galli
In short: as §2

[1] = Postemergence, Rate 250 g/ha, scale 0 to 10, 0 is no effect, 10 is complete control
[2] = Postemergence, Rate 500 g/ha, scale of 0 to 10 where 0 is no effect and 10 is complete control
[3] = Preemergence, Rate 62 g/ha, scale 0 to 10 (0 no effect, 10 complete control)
[4] = Preemergence, Rate 125 g/ha, scale of 0 to 10 where 0 is no effect and 10 is complete control
[5] = Preemergence, Rate 250 g/ha, scale of 0 to 10 where 0 is no effect and 10 is complete control
[6] = Preemergence, Rate 500 g/ha, scale of 0 to 10 where 0 is no effect and 10 is complete control
[7] = Postemergence, Rate 125 g/ha, scale 0 to 10, 0 is no effect, 10 is complete control
[8] = Rate 62 g/ha, Postemergence, scale of 0 to 10 where 0 is no effect and 10 is complete control
[9] = Rate 62 g/ha, flood test species, Pre-emergence, visual evaluation after twelve to sixteen days
[10] = Rate 125 g/ha, under heading Pre-emergence, flood test species, visual evaluation after twelve to sixteen days
[11] = Rate 250 g/ha, Pre-emergence, flood-test species, scale 0 to 10, 0 is no effect, 10 is complete control
[12] = Rate 500 g/ha, Pre-emergence, flood test species, scale 0 to 10 (0 no effect, 10 complete control)

CC(C)N(C(=O)n1oc(=O)[nH]c1=O)c1ccc(F)cc1F [Compound 391]
0: Bedstraw plant response rating (bedstraw) | Plant response rating, Blackgrass (blackgrass; [1]) | Blackgrass plant response rating (blackgrass; [2]) | Plant response rating, Blackgrass (blackgrass; [3]) | Plant response rating, Blackgrass (blackgrass; [4]) | Blackgrass plant response rating (blackgrass; [5]) | Blackgrass plant response rating (blackgrass; [6]) | Plant response rating, B. signalgrass (surinam grass; [7]) | Plant response rating, B. signalgrass (surinam grass; [1]) | B. signalgrass plant response rating (surinam grass; [2]) | Plant response rating, B. signalgrass (surinam grass; [3]) | Plant response rating, B. signalgrass (surinam grass; [4]) | B. signalgrass plant response rating (surinam grass; [5]) | B. signalgrass plant response rating (surinam grass; [6]) | B. signalgrass plant response rating (surinam grass; [8]) | Plant response rating, Cocklebur (cocklebur; [7]) | Plant response rating, Cocklebur (cocklebur; [1]) | Cocklebur plant response rating (cocklebur; [2]) | Plant response rating, Cocklebur (cocklebur; [3]) | Plant response rating, Cocklebur (cocklebur; [4]) | Cocklebur plant response rating (cocklebur; [5]) | Cocklebur plant response rating (cocklebur; [6]) | Cocklebur plant response rating (cocklebur; [8]) | Plant response rating, Corn (corn; [7]) | Plant response rating, Corn (corn; [1]) | Corn plant response rating (corn; [2]) | Plant response rating, Corn (corn; [3]) | Plant response rating, Corn (corn; [4]) | Corn plant response rating (corn; [5]) | Corn plant response rating (corn; [6]) | Corn plant response rating (corn; [8]) | Plant response rating, Crabgrass (crabgrass; [7]) | Plant response rating, Crabgrass (crabgrass; [1]) | Crabgrass plant response rating (crabgrass; [2]) | Plant response rating, Crabgrass (crabgrass; [3]) | Plant response rating, Crabgrass (crabgrass; [4]) | Crabgrass plant response rating (crabgrass; [5]) | Crabgrass plant response rating (crabgrass; [6]) | Crabgrass plant response rating (crabgrass; [8]) | Plant response rating, Giant foxtail (giant foxtail; [7]) | Plant response rating, Giant foxtail (giant foxtail; [1]) | Giant foxtail plant response rating (giant foxtail; [2]) | Plant response rating, Giant foxtail (giant foxtail; [3]) | Plant response rating, Giant foxtail (giant foxtail; [4]) | Giant foxtail plant response rating (giant foxtail; [5]) | Giant foxtail plant response rating (giant foxtail; [6]) | Giant foxtail plant response rating (giant foxtail; [8]) | Plant response rating, Morningglory (morningglory; [1]) | Morningglory plant response rating (morningglory; [2]) | Plant response rating, Morningglory (morningglory; [3]) | Plant response rating, Morningglory (morningglory; [4]) | Morningglory plant response rating (morningglory; [5]) | Morningglory plant response rating (morningglory; [6]) | Morningglory plant response rating (morningglory; [8]) | Plant response rating, Redroot pigweed (pigweed; [1]) | Redroot pigweed plant response rating (pigweed; [2]) | Plant response rating, Redroot pigweed (pigweed; [3]) | Plant response rating, Redroot pigweed (pigweed; [4]) | Redroot pigweed plant response rating (pigweed; [5]) | Redroot pigweed plant response rating (pigweed; [6]) | Redroot pigweed plant response rating (pigweed; [8]) | Plant response rating, Rape (rape; [1]) | Rape plant response rating (rape; [2]) | Plant response rating, Rape (rape; [3]) | Plant response rating, Rape (rape; [4]) | Rape plant response rating (rape; [5]) | Rape plant response rating (rape; [6]) | Rape plant response rating (rape; [8]) | Plant response rating, Soybean (soybean; [1]) | Soybean plant response rating (soybean; [2]) | Plant response rating, Soybean (soybean; [3]) | Plant response rating, Soybean (soybean; [4]) | Soybean plant response rating (soybean; [5]) | Soybean plant response rating (soybean; [6]) | Soybean plant response rating (soybean; [8]) | Plant response rating, Sugarbeets (sugar beet; [1]) | Sugarbeets plant response rating (sugar beet; [2]) | Plant response rating, Sugarbeets (sugar beet; [3]) | Plant response rating, Sugarbeets (sugar beet; [4]) | Sugarbeets plant response rating (sugar beet; [5]) | Sugarbeets plant response rating (sugar beet; [6]) | Sugarbeets plant response rating (sugar beet; [8]) | Plant response rating, Velvetleaf (velvetleaf; [1]) | Velvetleaf plant response rating (velvetleaf; [2]) | Plant response rating, Velvetleaf (velvetleaf; [3]) | Plant response rating, Velvetleaf (velvetleaf; [4]) | Velvetleaf plant response rating (velvetleaf; [5]) | Velvetleaf plant response rating (velvetleaf; [6]) | Velvetleaf plant response rating (velvetleaf; [8]) | Plant response rating, Wheat (wheat; [1]) | Wheat plant response rating (wheat; [2]) | Plant response rating, Wheat (wheat; [3]) | Plant response rating, Wheat (wheat; [4]) | Wheat plant response rating (wheat; [5]) | Wheat plant response rating (wheat; [6]) | Wheat plant response rating (wheat; [8]) | Plant response rating, Wild oats (wild oat; [1]) | Wild oats plant response rating (wild oat; [2]) | Plant response rating, Wild oats (wild oat; [3]) | Plant response rating, Wild oats (wild oat; [4]) | Wild oats plant response rating (wild oat; [5]) | Wild oats plant response rating (wild oat; [6]) | Wild oats plant response rating (wild oat; [8]) | Plant response rating, Nutsedge (purple nutsedge; [1]) | Nutsedge plant response rating (purple nutsedge; [2]) | Plant response rating, Nutsedge (purple nutsedge; [3]) | Plant response rating, Nutsedge (purple nutsedge; [4]) | Nutsedge plant response rating (purple nutsedge; [5]) | Nutsedge plant response rating (purple nutsedge; [6]) | Nutsedge plant response rating (purple nutsedge; [8]) | Plant response rating, Rice (0 to 10 scale, 0 is no effect, 10 is complete control) (rice; [9]) | Rice plant response rating (0 to 10 scale, 0 is no effect, 10 is complete control) (rice; [10]) | Rice plant response rating (rice; [11]) | Rice plant response rating (rice; [12]) | Plant response rating, S. Flatsedge (0 to 10 scale, 0 is no effect, 10 is complete control) (smallflower flatsedge; [9]) | S. Flatsedge plant response rating (0 to 10 scale, 0 is no effect, 10 is complete control) (smallflower flatsedge; [10]) | S. Flatsedge plant response rating (smallflower flatsedge; [11]) | S. Flatsedge plant response rating (smallflower flatsedge; [12]) | Plant response rating, Ducksalad (0 to 10 scale, 0 is no effect, 10 is complete control) (duck salad; [9]) | Ducksalad plant response rating (0 to 10 scale, 0 is no effect, 10 is complete control) (duck salad; [10]) | Ducksalad plant response rating (duck salad; [11]) | Ducksalad plant response rating (duck salad; [12]) | Plant response rating, Barnyardgrass (0 to 10 scale, 0 is no effect, 10 is complete control) (bamyardgrass; [9]) | Barnyardgrass plant response rating (0 to 10 scale, 0 is no effect, 10 is complete control) (bamyardgrass; [10]) | Barnyardgrass plant response rating (bamyardgrass; [11]) | Barnyardgrass plant response rating (bamyardgrass; [12])
